“Also recorded” adds a separate entry of the source. Where two headings read alike, the source gives them in different places.
Columns and labels:
[1] = test system: NLF and ABCG2-expressing clones; assay: Growth of NLF and ABCG2-expressing clones in presence of SN38 or SN22 (IncuCyte); type: cell-based, human
Description: FIG. 7: ABCG2 expression and growth of NLF and transfected clones. (A) Western analysis was performed on NLF and three single-cell clones with an ABCG2 antibody (Santa Cruz), compared to an actin control. Clones 1, 2 and 3 had trace, low and, intermediate levels of ABCG2 expression, respectively. (B) Growth of NLF and ABCG2-expressing clones in the presence of SN38 or SN22 (50 ng/ml). Growth shown at day 4.
To evaluate susceptibility of SN38 and SN22 to ABCG2 efflux, an ABCG2-null NB cell line, NLF, was identified. NLF was transfected with an ABCG2 expression vector, and then selected single-cell clones with trace, low, and intermediate levels of ABCG2 expression (FIG. 7A). Next, the sensitivity of NLF and ABCG2-expressing clones to different concentrations of SN38 or SN22 and monitored growth continuously using IncuCyte® S3 Live-Cell Analysis System was assessed.

BE(2)C cells [2] = conditions: free SN22 with or without unmodified Pluronic F-108
BE(2)C cells [3] = assay: Antiproliferative effect of [PEG-SN38-BG]8 on BE(2)C with/without vorinostat or entinostat; type: cell-based, human; conditions: 6 hr exposure, 25-100 nM SN-38 equivalent, vorinostat 1.25-5.0 μM, 6 days post treatment
Description: Cell growth was measured by bioluminescence. BE(2)C cell survival data at 6 days post treatment were analyzed for hyperadditivity by applying a model z=z0+A·x+B·y+C·[x·y] and determining the significance of the interaction term C.
The effect on cell growth kinetics was studied in comparison to free SN-38 or bipartite [PEG-SN38]8 lacking functionalization with BG (A). Cells were exposed for 4 hr to equivalent concentrations of the compounds, corresponding to 125 nM of SN-38. In an additional experiment (B), the response to treatment with [PEG-SN38-BG]8 was examined with/without a HDAC1-specific inhibitor, entinostat (0-5 μM). The doses of the prodrug were varied within a range equivalent to 0-100 nM SN-38, and the exposure duration was fixed at 6 hr. Cell growth was monitored by bioluminescence. The response is shown as % cell survival (mean±SD) at 6 days post-treatment. Experimental data were analyzed for hyperadditivity using a model z=z0+A·x+B·y+C·[x·y] and determining the significance of the interaction term C.
To evaluate the specific contribution of the targeting ligand incorporated in the prodrug structure, the cell growth inhibitory activity of [PEG-SN38-BG]8 on NET-expressing, chemoresistant NB cells was compared to that of a control molecule, [PEG-SN38]8, constructed analogously but without the BG moiety.

BE(2)C cells [4] = conditions: derived at relapse; cited from earlier work
BE(1) cells = conditions: derived at diagnosis; cited from earlier work
BE(2)C cells [5] = assay: Antiproliferative effect of PF68-SN38-BG vs PF68-SN38 and SN-38 on BE(2)C, 15-min exposure; type: cell-based, human; conditions: SN-38 equivalent dose 0-25 nM
Source text: Blank Pluronic F-68 had no effect on cell growth.

[6] = test system: orthotopic BE(2)C xenografts; type: in vivo; conditions: PF108-(SN22)2 10 mg/kg SN22 IV once a week x4; irinotecan 10 mg/kg SN38 twice a week
Source text: Saline or chemically unmodified Pluronic F-108 were used as negative controls.

[7] = test system: SKNBE(2)C orthotopic xenograft; assay: NB orthotopic xenograft model with chemo-resistant SKNBE(2)C; type: in vivo, mice; conditions: once a week x4 weeks; prodrugs 10 mg/kg/dose, CPT-11 15 mg/kg/dose
Description: Chemoresistant, luciferase transfected, SKNBE(2)C cells (107) were injected in the perineal fat pad of nude mice. Mice were divided into five groups: no treatment, or treatment with blank PEG, CPT-11, PEG-[SN38]4 or PEG-[SN22]4 (10 animals per group). Treatment started when tumors reached about 0.2 cm^3.
Mice were divided into five groups: no treatment, or treatment with blank PEG, CPT-11, PEG-[SN22]4 or PEG-[SN38]4 (10 animals per group). Treatment started when tumors reached about 0.2 cm^3.
Next, PEG-[SN22]4, PEG-[SN38]4 and CPT-11 in a NB orthotopic xenograft mouse model with the chemo-resistant NB line SKNBE(2)C. BE(2)C cells were transfected with a luciferase expression vector to allow for bioluminescent imaging. Mice were treated once a week for 4 weeks with either PEG-[SN22]4 (10 mg/kg/dose), PEG-[SN38]4 (10 mg/kg/dose) or CPT-11 (15 mg/kg/dose).
BE(2)C cells were transfected with a luciferase expression vector to allow for bioluminescent imaging. Mice were treated once a week for four weeks with either PEG-[SN22]4 (10 mg/kg/dose), PEG-[SN38]4 (10 mg/kg/dose) or CPT-11 (15 mg/kg/dose).

[8] = test system: orthotopic BE(2)C xenograft tumors; assay: Therapeutic efficacy of NET-directed Pluronic F-108 tripartite prodrug in refractory NB model; type: in vivo, mice; conditions: 4 weeks 2x/week; constructs 10 mg SN-38 per kg, irinotecan 15 mg/kg
Source text: FIG. 21: Therapeutic efficacy of NET-directed delivery in a model of refractory NB. Mice were inoculated in the suprarenal fat pad with 10^6 luciferase-expressing BE(2)C cells. […] Alternatively, tumors were allowed to reach 2 cm^3 before starting therapy (B). Disease progression was monitored by quantitative bioluminescence. Tumor growth data are shown as mean±SD.

[9] = test system: disseminated BE(2)C tumor deposits; assay: Therapeutic efficacy of [PEG-SN38-BG]8 in model of metastatic, refractory NB; type: in vivo, mice; conditions: from day 25, 4 weeks 2x/week; prodrug 10 mg SN-38 per kg, irinotecan 15 mg/kg
Description: Mice were injected through the tail vein with 10^6 luciferase-expressing BE(2)C cells. […] Tumor-associated signal was monitored by quantitative bioluminescence ((A), data shown as mean±SD). Representative images are included in (B).

[10] = test system: spontaneous NB tumors, TH-MYCN transgenic mouse; assay: TH-MYCN transgenic mouse model of de novo NB; type: in vivo, mice; conditions: once a week x4 weeks; PEG-[SN22]4 10 mg/kg/dose, CPT-11 15 mg/kg/dose
Description: Mice were treated with saline (N=8), CPT-11 (15 mg/kg/dose; N=7), PEG-[SN38]4 (10 mg/kg/dose; N=6) or PEG-[SN22]4 (10 mg/kg/dose; N=6) IV by tail vein once a week×4 weeks. Treatments started when the mice were about 5 weeks old with a tumor size about 1-2 cm^3.
PEG-[SN22]4 was also used to treat de novo NBs in a TH-MYCN transgenic mouse model. Spontaneous tumors develop in paraspinal ganglia or in the adrenal gland by 4-5 weeks in almost all mice with two copies of the transgene. Mice were divided into 4 groups once tumors became palpable (4-5 weeks): control-no treatment; CPT-11 treatment (15 mg/kg/dose), PEG-[SN38]4 (10 mg/kg/dose), or PEG-[SN22]4 (10 mg/kg/dose). Mice were treated once a week for 4 weeks. […] Mice were sacrificed when they became symptomatic from tumor burden.
Mice. Six-week-old Foxn1^nu/Foxn1^nu (JAX stock #007850) mice from Jackson Laboratories are used. Mice are maintained under humidity- and temperature-controlled conditions in a light/dark cycle that is set at 12-hour intervals. These mice are in a 129-SvJ background. Mice homozygous for the transgene generally develop tumors within 4-5 weeks.

[11] = test system: orthotopic IMR-32 xenografts; assay: Therapeutic efficacy of PF108-(SN22)2 in orthotopic IMR-32 xenograft model; type: in vivo, mice; conditions: PF108-(SN22)2 once a week; irinotecan 2x a week; 10 mg drug per kg
Source text: Mice were inoculated with 10^6 luciferase-expressing IMR-32 cells. […] Tumor-associated signal was monitored by quantitative bioluminescence. Quantitative data are shown as mean±SD.

[12] = test system: orthotopic BE(2)C xenografts; assay: Therapeutic efficacy of [PEG-SN38-BG]8 in orthotopic model of refractory NB; type: in vivo, mice
Description: FIG. 12: Therapeutic efficacy of [PEG-SN38-BG]8 in an orthotopic model of refractory, high-risk NB. Athymic nude (nu/nu) mice were inoculated with BE(2)C cells (10^6) stably expressing luciferase. Treatment with [PEG-SN38-BG]8 was administered intravenously at a dose equivalent to 10 mg/kg of SN-38 twice a week for 4 weeks. […] A group of mice administered with saline (no treatment) was used as a negative control. In an additional group, the prodrug was administered using the same regimen to animals allowed to reach a 10-fold larger tumor size (2.0 cm^3, ‘large tumors’). Tumor-associated signal was monitored by quantitative bioluminescence. Data presented graphically in (A) are expressed as mean±SD. The survival curves for respective animal groups over a 190-day period are shown in (B).
FIG. 16: Therapeutic efficacy of [PEG-SN38-BG]8 in an orthotopic model of refractory, high-risk NB. Athymic nude (nu/nu) mice were inoculated with BE(2)C cells (10^6) stably expressing luciferase. Treatment with [PEG-SN38-BG]8 was administered intravenously at a dose equivalent to 10 mg/kg of SN-38 twice a week for 4 weeks. […] Groups of mice administered either with blank PEG or saline (no treatment) were used as negative controls (A). […] Tumor-associated signal was monitored by quantitative bioluminescence. Data are presented as mean±SD.

[13] = test system: orthotopic IMR-32 xenografts; assay: Therapeutic efficacy of [PEG-SN38-BG]8 in orthotopic IMR-32 xenograft model; type: in vivo, mice; conditions: doses equivalent to 10 mg SN-38 per kg, 2x week over 4 weeks, from day 21
Source text: (§1) FIG. 15: Therapeutic efficacy of [PEG-SN38-BG]8 in an orthotopic xenograft model of chemo-naïve, MYCN-amplified NB. Mice were inoculated with 10^6 luciferase-expressing IMR-32 cells. […] Tumor-associated signal was monitored by quantitative bioluminescence. Data in (A) are shown as mean±SD. Representative bioluminescent images for each group are included in (B).
as §1, with “17:” for “15:”, “Representative” for “Representative bioluminescent”, “images” for “images for each group”
The effectiveness of the tripartite prodrug strategy in providing sustained anticancer effects against aggressive NB tumors was shown experimentally in an orthotopic IMR-32 xenograft model (FIG. 15).

CCc1c2c(nc3ccccc13)-c1cc3c(c(=O)n1C2)COC(=O)[C@]3(O)CC [SN22, 7-ethyl-camptothecin]
sensitivity of clones with higher ABCG2 levels ([1]; NLF clones with trace, low, intermediate ABCG2, 50 ng/ml, day 4): remained fully sensitive
responsiveness of BE(2)C cells vs IMR-32 (BE(2)C cells [2]): strongly shifted in comparison to IMR-32 toward higher doses and longer exposure durations

CCc1c2c(nc3ccc(O)cc13)-c1cc3c(c(=O)n1C2)COC(=O)[C@]3(O)CC [SN38, 7-ethyl-10-hydroxy-camptothecin]
potentiation of antiproliferative effect by vorinostat (BE(2)C cells [3]): moderately synergized
sensitivity of clones with higher ABCG2 levels [1]: increasingly resistant
concentration required for cell growth inhibition by 90% (therapeutic threshold) (BE(2)C cells [4]): 25 ng/mL
concentration required for cell growth inhibition by 90% (BE(1) cells): 2 ng/mL
BE(2)C cell growth inhibition (BE(2)C cells [5]): marginally inhibited

CCc1c2c(nc3ccc(OC(=O)N4CCC(N5CCCCC5)CC4)cc13)-c1cc3c(c(=O)n1C2)COC(=O)[C@]3(O)CC [irinotecan]
tumor growth (bioluminescence) [6]: marginal antitumor effect
tumor response during treatment [7]: had no effect; also recorded: had very little effect; also recorded: only slightly delayed
tumor growth (bioluminescence) [8]: marginal effect
disease progression (bioluminescence) [9]: no significant effect on the disease progression
tumor response [10]: only slightly delayed
tumor response (bioluminescence) [11]: only a transient response
tumor growth (bioluminescence), FIG. 16A ([12]; 2x/week over 4 weeks, prodrugs 10 mg/kg SN-38, irinotecan 15 mg/kg): no antitumor effect
tumor growth (bioluminescence), FIG. 12 ([12]; [PEG-SN38-BG]8 10 mg/kg SN-38 IV twice a week x4 weeks, irinotecan 15 mg/kg twice a week): marginal therapeutic effect and survival extension
t50% survival (event-free) ([12]; small tumors, twice a week x4 weeks): 20 days
tumor response (bioluminescence) [13]: tumors starting to regrow immediately after treatment cessation; also recorded: able to inhibit tumor growth for the duration of treatment

— patent publication US12311028B2, “Polymer-based macromolecular prodrugs” (The Children's Hospital of Philadelphia, priority 2018, dated 2025)
